Values quoted from earlier work in patent US20160243064A1, “NOVEL ORAL PHARMACEUTICAL COMPOSITIONS OF TREPROSTINIL” (Gavis Pharmaceuticals, priority 2015, published 2016).

Conditions: free acid, as taught by the cited US patents

CCCCC[C@H](O)CC[C@@H]1[C@H]2Cc3cccc(OCC(=O)O)c3C[C@H]2C[C@H]1O [treprostinil]
oral absolute bioavailability: less than 10%
